Laboratory results: ChEMBL document CHEMBL5661955, “ASAP - In vitro cytotoxicity” (2024)
“And” between values parts separate entries of the source, which are not always exact repeats. Equal values may be shown once.

Columns and labels:
[1] = Functional assay to measure dose dependent changes in cell viability from drug treatment in Vero E6 miRFP670 cells (cotreated with P-gp inhibitor, CP100356) that are infected with Dengue virus type 2 New Guinea C. […] Cytotoxicity is reported via via analysis of DAPI count using high-content imager. The assay has been performed by KU Leuven.; format: toxicity, cell-based, Vero C1008; conditions: chlorocebus sabaeus, p-gp concentration 500 nM
[2] = Functional CPE-based assay to measure dose dependent changes in cell viability from drug treatment in Huh-7 cells. Cells are treated with antiviral candidates that have been serially diluted. Cytotoxicity is reported via analysis of MTT/ MTS assays in uninfected cells. The assay has been performed by National Institute of Allergy and Infectious Diseases.; format: toxicity; conditions: human
[3] = Functional metabolic assay to measure dose dependent changes in cell viability from drug treatment in Vero E6/TMPRSS2 cells (cotreated with P-gp inhibitor, Elacridar). […] Cytotoxicity is reported via measuring absorbance and analysis of MTT/MTS assays in uninfected cells. The assay has been performed by Icahn School of Medicine at Mount Sinai.; format: toxicity, cell-based, VeroE6/TMPRSS2; conditions: chlorocebus sabaeus, p-gp concentration 2 uM
[4] = Functional metabolic assay to measure dose dependent changes in cell viability from drug treatment in Vero E6/TMPRSS2 cells. Cells are treated with antiviral candidates that have been serially diluted. Cytotoxicity is reported via measuring absorbance and analysis of MTT/MTS assays in uninfected cells. The assay has been performed by Icahn School of Medicine at Mount Sinai.; format: toxicity, cell-based, VeroE6/TMPRSS2; conditions: chlorocebus sabaeus; for CC50: Vero E6/TMPRSS2 cells; for CC10: veroe6/tmprss2
[5] = Functional CPE-based assay to measure dose dependent changes in cell viability from drug treatment in Vero E6 miRFP670 cells. Cells are treated with antiviral candidates that have been serially diluted. Cytotoxicity is reported via analysis of MTS assays in uninfected cells. The assay has been performed by KU Leuven.; format: toxicity, Vero C1008; conditions: chlorocebus sabaeus
[6] = Functional CPE-based assay to measure dose dependent changes in cell viability from drug treatment in Vero E6 miRFP670 cells (cotreated with P-gp inhibitor, CP100356). Cells are treated with antiviral candidates that have been serially diluted. Cytotoxicity is reported via analysis of MTS assays in uninfected cells. The assay has been performed by KU Leuven.; format: toxicity, Vero C1008; conditions: chlorocebus sabaeus
[7] = with CP100356 (P-gp inhibitor, concentration not stated)
[8] = Vero E6/TMPRSS2 cells, with Elacridar (P-gp inhibitor, concentration not stated)
[9] = Vero E6 miRFP670 cells, with CP100356 (P-gp inhibitor, concentration not stated), p-gp concentration 500 nM
[10] = vero c1008, p-gp concentration 500 nM

NCc1cccc(NC(=O)[C@@H](NC(=O)OCc2ccccc2)c2ccc(OCc3ccccc3)cc2)c1
CC50 [1, 7]: 5.95 µM
CC50 [2]: 18 µM

CCCC[C@H](NC(C)=O)C(=O)N[C@H](C(=O)NCc1ccc(C(N)=O)cc1)c1ccc(OCc2ccccc2)cc1
CC50 [1, 7]: > 10 µM
CC50 [3, 8]: > 50 µM
CC10 ([3]; veroe6/tmprss2): > 50 µM
CC50 [2]: 15 µM

CCCCCC(=O)N[C@H](C(=O)Nc1ccc2[nH]ncc2c1)c1ccc(OCc2ccccc2)cc1
CC50 [1, 7]: > 10 µM
CC50 [2]: 32 µM

NCc1cccc(C(=O)Nc2cc(Cl)cc(NC(=O)OCc3ccccc3)c2)c1
CC50 [3, 8]: > 10 µM
CC50 ([3]; veroe6/tmprss2): 19.3 µM
CC50 [4]: 6.67 µM
CC10 [4]: 8.366 µM

O=C(Nc1cc(Cl)cc(C(=O)Nc2cccc(-c3nnn[nH]3)c2)c1)OCc1ccccc1
CC50 [3, 8]: > 50 µM
CC10 ([3]; veroe6/tmprss2): 0.117 µM
CC50 [4]: > 50 µM
CC10 [4]: > 50 µM

CCc1cc(C(=O)Nc2cccc(CN)c2)sc1-c1ccc(Cl)cc1
CC50 [3, 8]: 9.12 µM
CC10 ([3]; veroe6/tmprss2): 0.452 µM
CC50 ([5]; Vero E6 miRFP670 cells): 4.86 µM
CC50 [4]: 13.9 µM
CC10 [4]: 15.317 µM

NCc1ccc(-c2ncc(OCC3CCNCC3)nc2-c2ccc(C3CCOCC3)cc2)cc1
CC50 [1, 7]: > 10 µM
CC50 [2]: 32 µM

O=C(O)c1cc2cc(-c3cc(Cl)cc(C4CC4)c3)ccc2[nH]1
CC50 [1, 7]: 26.5 µM
CC50 ([5]; Vero E6 miRFP670 cells): 40.7 µM
CC50 [6, 9]: 35.5 µM

O=C(Nc1cc(Cl)cc(C(=O)Nc2ccc(C3CCNCC3)cc2)c1)OCc1ccccc1
CC50 [1, 7]: 3.1 µM
CC50 ([5]; Vero E6 miRFP670 cells): 2.82 µM
CC50 [6, 9]: 1.43 µM

NCCc1cccc(NC(=O)[C@H]2[C@H]3CCCCC[C@H]3[C@H]2NC(=O)OCc2ccccc2)c1
CC50 [1, 7]: 7.53 µM
CC50 [3, 8]: 4.88 µM
CC10 ([3]; veroe6/tmprss2): 0.282 µM
CC50 ([5]; Vero E6 miRFP670 cells): 7.48 µM
CC50 [4]: 1.78 µM
CC10 [4]: 2.002 µM

Cc1ccc(NC(=O)c2cc(Cl)cc(NC(=O)OCc3ccccc3)c2)cc1CN
CC50 [1, 7]: 4.33 µM
CC50 [3, 8]: 15 µM
CC50 ([3]; veroe6/tmprss2): 15.2 µM
CC50 ([5]; Vero E6 miRFP670 cells): 5.18 µM
CC50 [4]: 6.64 µM
CC10 [4]: 8.104 µM
CC50 [6, 9]: 5.8 µM

COc1cc(Cc2c(-c3ccc(F)cc3)noc2C)nc(N2CCNCC2)n1
CC50 [1, 7]: > 10 µM
CC50 [2]: 18 µM

CC[C@@H](Cc1nnn[nH]1)c1ccc(NC(=O)c2cc(Cl)cc(NC(=O)OCc3ccccc3)c2)cc1
CC50 [1, 7]: > 50 µM
CC50 [3, 8]: > 50 µM
CC10 ([3]; veroe6/tmprss2): > 50 µM
CC50 ([5]; Vero E6 miRFP670 cells): > 50 µM
CC50 [4]: > 50 µM
CC10 [4]: > 50 µM

O=C(Nc1cc(Cl)cc(-c2ccc3cc(C(=O)O)[nH]c3c2)c1)OCc1ccccc1
CC50 [1, 7]: 24.8 µM
CC50 ([5]; Vero E6 miRFP670 cells): < 0.391 µM
CC50 [6, 9]: 38.1 µM

CC(C)NC(=O)[C@H](Nc1ccc2c(c1)CNC2)c1cc(Cl)cc2[nH]ncc12
CC50 ([1]; vero c1008): > 50 µM and 7.69 µM and 29 µM
CC50 [3, 8]: > 50 µM
CC10 ([3]; veroe6/tmprss2): > 50 µM
CC50 ([5]; Vero E6 miRFP670 cells): > 50 µM
CC50 [6, 9]: > 50 µM
CC50 [6, 10]: 47.7 µM

CCc1cc(Br)cc2c(Cc3ccc(-c4nnn[nH]4)cc3)c[nH]c12
CC50 ([1]; vero c1008): 18.6 µM
CC50 [1, 7]: 23.1 µM
CC50 ([5]; Vero E6 miRFP670 cells): 19.4 µM
CC50 ([5]; vero c1008): 17.9 µM
CC50 [6, 9]: 21.7 µM

C[C@@]1(O)[C@H](O)[C@@H](CO)O[C@H]1n1ccc2c(N)ncnc21 [BETA-2'-C-METHYL-7-DEAZA-ADENOSINE]
CC50 ([1]; vero c1008): 24.6 µM and > 200 µM
CC50 [3, 8]: > 10 µM
CC50 ([5]; Vero E6 miRFP670 cells): > 50 µM
CC50 [4]: > 10 µM
CC10 [4]: > 10 µM
CC50 ([6]; vero c1008, p-gp concentration 100 nM): > 50 µM
CC50 [6, 10]: > 200 µM

Cc1[nH]c2ccccc2c1CN1CCC(c2c[nH]c3ncccc23)CC1
CC50 [1, 7]: 31 µM
CC50 [3, 8]: > 10 µM
CC50 ([5]; Vero E6 miRFP670 cells): 25.2 µM
CC50 [4]: > 50 µM
CC10 [4]: > 50 µM

Cc1cc(CN)cc(NC(=O)c2cc(Cl)cc(NC(=O)OCc3ccccc3)c2)c1
CC50 [3, 8]: > 10 µM
CC50 ([3]; veroe6/tmprss2): 16.6 µM
CC50 [4]: 7.97 µM
CC10 [4]: 8.014 µM

CCCCCC(=O)N[C@H](C(=O)Nc1ccc(C(N)=O)cc1)c1ccc(OCc2ccccc2)cc1
CC50 [1, 7]: > 10 µM
CC50 [2]: 32 µM

CCCCCC(=O)N[C@H](C(=O)NCc1cccc(CN)c1)c1ccc(OCc2ccccc2)cc1
CC50 [1, 7]: 2.32 µM
CC50 [2]: 18 µM

O=C(Nc1cc(Cl)cc(C(=O)Nc2ccc3c(c2)CNC3)c1)OCc1ccccc1
CC50 [1, 7]: 12.1 µM
CC50 ([3]; veroe6/tmprss2): > 10 µM and 25.1 µM
CC50 ([5]; Vero E6 miRFP670 cells): 9.29 µM
CC50 [4]: 16.6 µM
CC10 [4]: 19.011 µM

NCCCc1cccc(NC(=O)c2cc(Cl)cc(NC(=O)OCc3ccccc3)c2)n1
CC50 [3, 8]: 14.9 µM
CC10 ([3]; veroe6/tmprss2): 0.527 µM
CC50 ([5]; Vero E6 miRFP670 cells): 4.43 µM
CC50 [4]: 6.18 µM
CC10 [4]: 6.788 µM

O=C(O)c1cc(Oc2ccc(F)cc2)c(F)cc1NS(=O)(=O)c1ccc(Oc2ccccc2Cl)cc1
CC50 [1, 7]: 5.31 µM
CC50 [3, 8]: > 50 µM
CC50 ([3]; veroe6/tmprss2): 44 µM
CC50 [2]: 20 µM

NCCc1ccc([C@H]2C[C@@H]2c2cc(Cl)cc(NC(=O)OCc3ccccc3)c2)cc1
CC50 ([1]; vero c1008): 4.57 µM
CC50 [1, 7]: 5.29 µM
CC50 ([5]; Vero E6 miRFP670 cells): 2.43 µM
CC50 [6, 9]: 5.78 µM

CC1(C)Cc2sc(NC(=O)Cc3ccc(S(N)(=O)=O)cc3)c(C#N)c2CN1CC1CCCCC1
CC50 ([5]; Vero E6 miRFP670 cells): > 50 µM
CC50 [2]: 16 µM

COc1cc(N[C@@H](C(=O)N2CCc3ccc(OC(F)(F)F)cc32)c2ccc(Cl)cc2)cc(OCCCC(=O)O)c1
CC10 ([3]; veroe6/tmprss2): > 10 µM and 7.237 µM
CC50 ([3]; veroe6/tmprss2): > 10 µM and 37.7 µM
CC50 ([5]; vero c1008): > 50 µM and 19.7 µM and 11.3 µM
CC50 [6, 9]: 11.1 µM
CC50 [2]: 19 µM

O=C(NCC(F)(F)F)c1cc(Cl)c(F)cc1NS(=O)(=O)c1ccc(Oc2ccccc2Cl)cc1
CC50 ([1]; vero c1008): 5.65 µM
CC50 [1, 7]: > 10 µM
CC50 ([5]; Vero E6 miRFP670 cells): 3.98 µM
CC50 [2]: 1.9 µM

NCc1cccc(NC(=O)C[C@@H](NC(=O)OCc2ccccc2)c2ccc(OCc3ccccc3)cc2)c1
CC50 [1, 7]: > 10 µM
CC50 [2]: 6.1 µM

O=C(O)c1cc(Cl)ccc1NS(=O)(=O)c1ccc(Oc2ccccc2Cl)cc1
CC50 [4]: > 50 µM
CC10 [4]: > 50 µM

CCCCCC(=O)N[C@H](C(=O)N1CCCCC1)c1ccc(OCc2ccccc2)cc1
CC50 [1, 7]: > 10 µM
CC50 [2]: 19 µM

Cc1cc(-c2ccc([C@@H](NC(=O)OCc3ccccc3)C(=O)Nc3cccc(CN)c3)cc2)cs1
CC50 [3, 8]: 21.2 µM
CC10 ([3]; veroe6/tmprss2): 0.089 µM
CC50 [4]: 6.25 µM
CC10 [4]: 7.281 µM

c1ccc2sc(C3CCN(Cc4c[nH]c5ccccc45)CC3)nc2c1
CC50 [1, 7]: 5.31 µM
CC50 [3, 8]: 49.2 µM
CC50 ([3]; veroe6/tmprss2): > 50 µM
CC50 [2]: 18 µM

O=C1Cc2c(cccc2C(=O)Nc2ccc3c(c2)CNC3)N1
CC50 [1, 7]: > 50 µM
CC50 ([5]; Vero E6 miRFP670 cells): > 50 µM
CC50 [6, 9]: > 50 µM

C#C[C@@]1(O)[C@H](O)[C@@H](CO)O[C@H]1n1ccc2c(N)ncnc21
CC50 ([1]; vero c1008): 40.4 µM and 28.2 µM
CC50 [1, 7]: > 50 µM
CC50 ([5]; Vero E6 miRFP670 cells): > 50 µM
CC50 [6, 9]: > 50 µM
CC50 [6, 10]: 38 µM

O=C(Nc1cc(Cl)cc(C(=O)Nc2cccc(-n3nn[nH]c3=O)c2)c1)OCc1ccccc1
CC50 [1, 7]: > 50 µM
CC50 ([5]; Vero E6 miRFP670 cells): > 50 µM
CC50 [4]: > 50 µM
CC10 [4]: > 50 µM
